Test results from patent publication US20140076194A1, “ANTIFOULING BY ADHESION SUPPRESSION” (PURDUE RESEARCH FOUNDATION, priority 2011, published 2014).

Tests used:
mussel = assay: Mussel plaque adhesion to coated plates (Instron tensile pull of individual plaques); assay type: in vivo; design: Total Animal Removal Force: unit not given here; settings: for mussel adhesion (in words): antioxidant or reducing agent in coating; for total animal removal force (in words): Tables 4A and 4B, upon addition of antioxidant, versus DBT control; for force to detach animal: estimated from number of plaques and adhesion per plaque, primer control ~5.6 N; for # of plaques (average): primer control 11.3
Excerpt: In order to obtain insights on the antifouling potential of a given coating, we would benefit from a rapid laboratory method to quantify adhesion. Coatings that show decreased adhesion in such a laboratory test can then be sent to other investigators for assays with different organisms as well as field testing. We have recently developed a method for determining the adhesion strength of mussels to surfaces. The adhesive system of mussels lends itself well to precise force measurements. Mussels are placed on a candidate coating for adhesive deposition. The area (m^2) of each plaque is determined by digital photography and use of image analysis software. Individual plaques are then pulled from the surface using clamps in an Instron materials testing system (as illustrated in FIG. 3). […] Beyond simply looking for new antifouling coatings to decrease mussel adhesion, we also take note of the adhesive failure modes on new coatings versus controls. […] Thread breakage is also possible but minimized to nearly zero with our adhesion method. When mussels adhere strongly to a given surface, more cohesive failure is often observed or a mix of both cohesive and adhesive failure. If we inhibit curing of the glue with radical inhibitors on the surface, we may find that more adhesive or cohesive failure is observed. Overall, use of this mussel adhesion assay provides quantitative data on the ability of a candidate antifouling coating to inhibit bioadhesion. Here we will use this assay on each coating. Coatings that decrease mussel adhesion substantially will be carried on to further testing. As an operative example, the animal adheres to a given surface (e.g., aluminum plate). […] The animal is removed by cutting the connecting threads at the shell line. At this point, we are left with the surface, an adhesive plaque, and the thread. Adhesion forces must be normalized for surface contact area. Complete adhesion measurement methods includes obtaining data on the plaque-surface contact area. Mussel plaques are typically not perfect circles or ovals. The small size (approximately 2 mm diameter) and irregular shape may complicate obtaining accurate areas. Prior to adhesive testing, a photograph is taken of the plaque. A Nikon (Melville, N.Y., USA) […] digital camera fitted with a Nikon 50 mm f-1.8 lens and a Kenko 12 mm extension tube is held on a small tripod while the lens is oriented directly onto the plate below. The lens is approximately 18 cm above the plates being photographed. Typical exposure settings include f=3.5, 1/15 second shutter speed, and 200 ISO. Ambient light should be sufficient to capture the images. Photographs are taken in JPEG format at maximum resolution ( 3.3 MB per image). Individual plaques are numbered using a marker prior to taking the photograph so that the numbers are included in the image. These labels allow correlation of specific plaques to tensile strength data. At the time of photographing the plaques, area standards are also photographed. The digital images of the plates can be later revisited for calculating surface area. Image analysis software counts pixels within the plaque, relative to a standard, to provide area (m^2). […] Plates bearing plaques and threads are clamped to the base of the Instronl 5544 materials testing system. A custom designed stainless steel base is fabricated for these experiments. The base is a circular platform 15 cm in diameter with a post and pinhole on the bottom, allowing bolting into the bottom mount of the Instron. Test plates with adhesive are fastened to this base with two Quick-Grip Handi Clamps (Wilmington, Ohio, USA) holding down opposite corners. The Instron is fitted with one screw-action grip (part 2710-004) on the top and a 5N load cell. Detachment force measurements begin by lowering the grips directly over an individual plaque. The thread is lifted by hand and is placed in between the grips. The grips are then tightened over the thread. […]

[1] = Water contact angle of coatings; assay type: physicochemical; settings: metal primer coating with BHT; metal primer coating alone approximately 106°
Procedure: In some cases added solvent helps the dissolution. We use the same solvent already in the commercial coating (e.g., xylenes or acetone). After curing is complete, the resulting coating is inspected and compared to the control of a similar coating without the adhesion inhibitor. If we observe a lack of curing, crystallization of inhibitors on the surface, lower coating modulus, or color changes the formulation may be discarded from consideration. Water contact angles are then measured for both the coatings and all controls (e.g., coating without inhibitor). Typically the coatings have very similar water contact angles as the controls (e.g., similar to within ˜5°). Large differences in contact angles will also lead to discarding a candidate antifouling formulation. A further narrowing of candidate coatings then takes place. We examine water contact angles (i.e., surface energy) of the evaporative coatings with an antioxidant versus without an added inhibitor. Any coatings with added inhibitor that changes water contact angle by more than 5° may be eliminated from further testing. […] It is envisioned that these modifications are not indicative of whether a particular reductive coating is an effective antifouling coating. […] As part of this selection process, we have approximately twenty (20) coatings to examine, into which we could place approximately eight (8) different antioxidants.

[2] = 2.5% additive in primer, Table 4B
[3] = 25% additive in primer, Table 4A
[4] = 25% additive in primer, Table 4C, recent data with variations versus Table 4A
[5] = Coating: 2.5% (w/w), Table 5B, FIG. 6
[6] = Coating: 25% (w/w), Table 5A, FIG. 5
[7] = primer + 2.5% BHT (w/w) coating, Table 3
[8] = primer + 25% BHT (w/w) coating, Table 3

| SMILES | % Adhesive Failure (mussel; [2]) | Adhesive Failure (mussel; [2]) | Mean Adhesion (mussel; [2]) | Plaques/Mussel (mussel; [2]) | Total Animal Removal Force (mussel; [2]) | % Adhesive Failure (mussel; [3]) | Adhesive Failure (mussel; [3]) | Mean Adhesion (mussel; [3]) | Plaques/Mussel (mussel; [3]) | Total Animal Removal Force (mussel; [3]) | Adhesion (mussel; [4]) | Average Force (mussel; [4]) | Average Adhesion (kPa) with 99% CI (mussel; [5]) | Average Adhesion (kPa) with 99% CI (mussel; [6]) | mussel adhesion (in words) (mussel) | total animal removal force (in words) (mussel) | also measured |
| --- | --- | --- | --- | --- | --- | --- | --- | --- | --- | --- | --- | --- | --- | --- | --- | --- | --- |
| Cc1cc(C(C)(C)C)c(C)c(C(C)(C)C)c1 [DBT, reference compound] | 7.0% | 49.3 kPa | 45.8 kPa | 24.1 | 1430 | 31.6% | 57.3 kPa | 53.1 kPa | 17.2 | 986 | 47.07 kPa | 0.2198 N | 80.31 ± 5.08 kPa | 106.34 ± 6.74 kPa | – | – | – |
| CC(=O)C(=O)O [pyruvic acid] | – | – | – | – | – | – | – | – | – | – | – | – | – | – | reduce mussel adhesion | – | – |
| COc1ccccc1 [anisole] | 21.1% | 42.0 kPa | 39.7 kPa | 20.1 | 844 | 54% | 56.8 kPa | 59.1 kPa | 17.4 | 988 | 33.53 kPa | 0.1686 N | 90.03 ± 8.16 kPa | 75.02 ± 5.39 kPa | reduce mussel adhesion | decreases significantly | – |
| CCOc1ccc2c(c1)C(C)=CC(C)(C)N2 [6-ethoxy, 6-ethoxy-1,2-dihydro-2,2,4-trimethylquinoline] | 90.9% | 33.6 kPa | 33.9 kPa | 22.3 | 749 | 76.4% | 33.7 kPa | 34.6 kPa | 18.4 | 620 | 21.23 kPa | 0.0948 N | 82.60 ± 4.42 kPa | 58.22 ± 6.73 kPa | reduce mussel adhesion | decreases significantly | – |
| Cc1cc(C(C)(C)C)c(O)c(C(C)(C)C)c1 [BHT, butylated hydroxytoluene] | 66.7% | 41.5 kPa | 41.5 kPa | 17.4 | 722 | 44.7% | 37.0 kPa | 39.5 kPa | 11.1 | 411 | 37.08 kPa | 0.1894 N | 87.82 ± 4.98 kPa | 90.24 ± 6.84 kPa | – | decreases significantly | average mussel adhesion (in words) (mussel; 2.5% and 25% BHT-in-primer coatings versus primer-only controls): decreases significantly; total force needed to remove a mussel (in words) (mussel; BHT in the coating, number of plaques combined with adhesion per plaque): drops by up to half; adhesive produced by the animals (in words) (mussel; BHT-containing panels versus primer-only controls): produce less adhesive; force to detach animal (mussel; [7]): ~3.4 N; # of plaques (average) (mussel; [7]): 9.6 plaques; Adhesion (mussel; primer + 2.5% BHT (w/w) coating, Table 3, primer control 184 ± 68 kPa): 135 ± 58 kPa; force to detach animal (mussel; [8]): ~2.2 N; # of plaques (average) (mussel; [8]): 5.2 plaques; Adhesion (mussel; primer + 25% BHT (w/w) coating, Table 3, primer control 184 ± 68 kPa): 110 ± 43 kPa; water contact angle [1]: approximately 108 ° |
| CC(C)(C)c1cccc(O)c1C(C)(C)C [DTBP, 2,3-di-tert-butylphenol] | 17.6% | 56.9 kPa | 66.5 kPa | 30 | 1707 | 70.7% | 40.4 kPa | 42.0 kPa | 16.9 | 683 | 34.11 kPa | 0.1902 N | 89.88 ± 8.45 kPa | 82.63 ± 5.24 kPa | reduce mussel adhesion | decreases significantly | – |
